Columns and labels:
Format in all cases: cell-based
[1] = test system: Human liver cancer cells HepG-2; experiment: Monitoring mitochondrial polarized state using fluorescent reagent JC-1 (HepG-2); conditions: fenofibrate medium; especially about 20 minutes after the reagent was added; FIG. 3
Method: The fluorescent microscopic observation was carried out with the use of Axioplan 2 (Carl Zeiss) as a microscope, a 75-W xenon lamp as a light source, and NTE/CCD Detector MicroMAX-512BFT (Princeton Instruments) as a detector. Images were obtained and analyzed with the use of fluorescence analysis software, MetaFluor Imaging System Ver. 4.65 (Universal Imaging).
(§1) Human liver cancer cells HepG-2 were used as test cells. A liquid medium EMEM containing 100 μM nonessential amino acid, 50 units/mL penicillin, 50 μg/mL streptomycin, and 10% (v/v) FBS was prepared, at 37° C. with a CO2 concentration of 5%, to be used as a complete medium, and the cells were pre-cultured in the complete medium and then used in the testing. Fenofibrate (2-[4-(4-Chlorobenzoyl)phenoxy]-2-methylpropanoic acid isopropyl ester) was used as a lipid metabolism promoting agent. Lipid metabolism activity was evaluated at the time when 25 μM fenofibrate was added and at the time when 50 μM fenofibrate was added. […]
Following pre-culture, the test cells were removed from the petri dish, and the concentration of the test cells in the complete medium was adjusted to 2×10^6 cell/mL. […] To detect fluorescence, a set of filters that transmitted 515-565 nm and a set of filters that transmitted 575-640 nm were used. […]

[2] = test system: Human liver cancer cells HepG-2; experiment: Evaluation of lipid metabolism activity using SPR; conditions: 25 μM and 50 μM fenofibrate; especially about 20 minutes after the reagent was added; FIG. 2
Method: Measurement of SPR signals and fluorescent microscopic observation were carried out using a device having a fluorescent microscope located above living cells, which cells are a target of the measurement, and an SPR sensor located under the living cells. […] An optical system of Kretschmann configuration was used as an SPR sensor. BK7 (with a refractive index of 1.51) was used as a prism. A semiconductor laser (with a wavelength of 670 nm, an output of 3 mW, and a beam diameter of 1 mm) was used as a light source. A silicon photodiode detector was used as a detector. The measurement was carried out in the atmosphere (with 20% O2 and 0.035% CO2), unless otherwise stated.
as §1

[3] = test system: Human pancreas cancer cells MIA PaCa-2; experiment: Survival rate by counting the number of cells (trypan blue, standard method), combined use of agents; conditions: 25 μM each agent; 48 hours after medium replacement; FIG. 12
Method: The effect of combined use of plural agents was evaluated by a method including co-culturing a test agent with the cells, and counting the number of reduced cells by apoptosis. Human pancreas cancer cells MIA PaCa-2 were used as the test cells. A cell suspension of 5×10^4 cells/mL was prepared with the use of EMEM (Eagles' minimum essential medium) containing 10% (v/v) FBS, 50 units/mL penicillin, 50 μg/mL streptomycin, and 100 μM nonessential amino acid, and 5 mL of the cell suspension was poured into each 6-cm petri dish and pre-cultured at 37° C. with the CO2 concentration of 5%. After 24 hours, either a replacement with new 5 mL EMEM (DMSO used as the solvent of the phenol component was contained at the final concentration of 0.1% (v/v)) containing 25 μM quercetin, 25 μM trans-resveratrol, or both 25 μM quercetin and 25 μM trans-resveratrol in addition to the medium, or a replacement with 5 mL EMEM containing only 0.1% (v/v) DMSO as a control was carried out, and then culturing was carried out. Forty eight hours after the medium was replaced, trypan blue staining was carried out, and then the number of cells was counted with a hemocytometer. Comparison was carried out for the respective conditions, with 100 representing the number of cells in the control.

[4] = test system: Human pancreas cancer cells MIA PaCa-2; experiment: Measurement of SPR angle, agents alone or in combination; conditions: 25 μM each agent; 50 minutes after the administration; FIG. 13
Method: SPR angles were measured with the above-described SPR sensor (tilting sensor) at the temperature of 37.0° C. Likewise in the measurement of the survival rate, a cell suspension of 2×10^6 cell/mL was prepared, and 100 μL of the cell suspension was dropped onto a gold plate for SPR measurement and cultured for 20 hours at 37° C. with the CO2 concentration of 5%. After 20 hours, the plate was placed on the prism of the SPR sensor, and on the plate was filled 5 mL EMEM. Then, measurement was started. Ten minutes after the measurement was started, either a replacement with new 5 mL EMEM (DMSO used as the solvent of the phenol component was contained at a final concentration of 0.1% (v/v)) containing 25 μM quercetin, 25 μM trans-resveratrol, or both 25 μM quercetin and 25 μM trans-resveratrol, or a replacement with 5 mL EMEM containing only 0.1% (v/v) DMSO as a control was carried out, and then the measurement of the changes in SPR angle was continued for another 50 minutes.

Compound | fluorescence intensity (JC-1) resulting from mitochondrial polarization due to activation of lipid metabolism [1] | changes in SPR signals resulting from mitochondrial polarization due to activation of lipid metabolism [2] | survival rate (number of cells, control = 100) [3] [%] | change in SPR angle [4]
CC(C)OC(=O)C(C)(C)Oc1ccc(C(=O)c2ccc(Cl)cc2)cc1 [fenofibrate, 2-[4-(4-Chlorobenzoyl)phenoxy]-2-methylpropanoic acid isopropyl ester] | increase in fluorescence intensity | changes (−) were observed in the SPR signals |  | 
O=c1c(O)c(-c2ccc(O)c(O)c2)oc2cc(O)cc(O)c12 [quercetin, Quercetin] |  |  | 76.1 | approximately 0.05 degrees
Oc1ccc(/C=C/c2cc(O)cc(O)c2)cc1 [trans-resveratrol] |  |  | 56.2 | approximately 0.05 degrees

Reference: patent US20110003321A1, “Monitoring of Intercellular Mitochondorial Polarization” (Kyushu University National University Corporation, priority 2005, published 2011)
